# According to patent US11639412B2, “Acute care cover for severe injuries” (priority 2016, dated 2023):
# Tested on: Staphylococcus aureus
# Experiment: Zone of inhibition assay
# Type: cell-based
# Details: 37° C. for 72 hours
# Method: Zone-of-inhibition and Drug Delivery Assay—Antimicrobial activity of ciprofloxacin- and tetracycline-loaded polyHIPEs was assessed through a zone of inhibition assay. […] The polyHIPE discs were incubated in the drug solutions at room temperature overnight. Prior to being frozen and lyophilized, the discs were briefly rinsed with methanol. A plate of Staphylococcus aureus was streaked using cells from frozen stocks; single colonies, selected from the plate, were then used to inoculate 10 mL of liquid LB media, which were cultured overnight at 37° C. The starter cultures were diluted with fresh LB to an OD600 of approximately 1.1 before being further diluted in 1:5 ratio of culture to fresh, liquid LB media. To inoculate LB agar plates, 250 μL of the diluted culture was spread evenly across the surface of the plates, which were then incubated for 30 minutes at 37° C. The LB plates were then removed from the incubator and divided into 4 quadrants with the drug-loaded or control polyHIPE discs placed in the center of each quadrant. The plates were then returned to the incubator and cultured for approximately 24 hours. Following the 24-hour period of incubation, the plates were removed, photographed next to a standard ruler and the polyHIPEs transferred to a freshly inoculated plate which was incubated for another 24 hours. […]
smiles,measurement,value
O=C(O)c1cn(C2CC2)c2cc(N3CCNCC3)c(F)cc2c1=O [ciprofloxacin],antibiotic activity within polyHIPEs after incubation,not diminished
